{
  "source": "patent US5026836A",
  "about": "“6-sulfenamide, 6-sulfinamide and 6-sulfonamide purines, purine nucleosides, purine nucleotides, pharmaceutical compositions, and processes of making” (priority 1988, dated 1991)",
  "key": {"L1210 cells [1]": {"system": "L1210 cells", "test": "Life span of BDF1 mice inoculated ip with 10^6 L1210 leukemia cells", "assay_type": "in vivo, mouse", "description": "As illustrative examples of use of the compounds of the invention the following examples are given. […] These standard tests utilize protocols developed under the auspices of the Developmental Therapeutics Program, Division of Cancer Treatment, National Cancer Institute, Bethesda, Md., U.S.A. Except as otherwise indicated the tests conform to these protocols and are evaluated utilizing criteria defined by the protocols.\n(§1) Values below 25% are considered capable of producing effective therapy, those below 10% are considered good and those below 5% are considered very good. This expresses the percent of the cells which survived treatment based upon the original cells in the inoculum. Those tests expressed as increases in life span (% ILS) indicate the increased life span of the drug treated group compared to a control group.\nAs an indicator of reproducible activity, compounds of the invention and other known cancer chemotherapeutic agents were screened against L1210 lymphoid leukemia in vivo utilizing the mouse as a test species. Normal NCI protocols for this test require 10^5 seed cells of the L1210 cell line.\nCytosine Arabinoside must be given every three hours.\nMice were inoculated intraperitoneally on day 0 with a million cells of murine leukemia L1210. Drug was given qd days 1, 4 and 7. Increased life span is the mean increase in the treated group presented as a percentage of the mean life span of control mice.\nMice were inoculated intraperitoneally on day 0 with a million cells of murine leukemia L1210. Drugs were given qd days 1, 3, 5 and 7. Increased life span is presented as a percentage of the mean life span of control mice."}, "[2]": {"system": "human lung carcinoma LX-1", "test": "Activity against human lung carcinoma LX-1", "details": "in vivo"}, "[3]": {"system": "drug resistant cell lines", "test": "Generation of drug resistant cell lines"}, "L1210/MTX cells": {"system": "L1210/MTX cells", "test": "Methotrexate resistant L1210 cells surviving treatment", "assay_type": "in vivo, mouse", "description": "In Example I Compound 19 was tested against Methotrexate resistant L1210 cells."}, "L1210 cells [4]": {"system": "L1210 cells", "test": "L1210 cells surviving treatment (% of original inoculum)", "assay_type": "in vivo, mouse", "description": "as §1\nAs an indicator of reproducible activity, compounds of the invention and other known cancer chemotherapeutic agents were screened against L1210 lymphoid leukemia in vivo utilizing the mouse as a test species. Normal NCI protocols for this test require 10^5 seed cells of the L1210 cell line. However for the purposes of tests with the L1210 cell line in testing the compounds of the invention for antitumor activity, a log greater, i.e. 10^6 cells were utilized.\nTables 2-a and 2-b illustrate a dose response for Compound 19 against L1210 inoculated mice expressed as both increased life span compared to control and as the number of cells of the original inoculum surviving drug treatment. As is evident from the various regimens of drug treatment shown in Tables 2-a and 2-b, effective therapeutic effects are noted and a dose response to Compound 19 is evident. […] Cytosine Arabinoside must be given every three hours. Test results are given utilizing standard protocols based on mean survival time and are expressed as T/C percentages (treated animals/control animals)."}, "[5]": {"details": "oral 37 mg/kg/inj, bid days 1,3,5,7"}, "[6]": {"details": "oral 62 mg/kg/inj, bid days 1,4,7"}, "[7]": {"details": "listed as 2-amino-9-β-D-ribofuranosyl-9H-purine-6-sulfinamide"}},
  "note": "Values joined by “and” are separate entries in the source; they are usually repeats but may differ in a detail not shown here. Equal values may be shown once. “Also recorded” adds a separate entry of the source. Read-outs that look alike come from different tables or passages of the source.",
  "data": [
    {"smiles": "Nc1nc([S+](N)[O-])c2ncn([C@@H]3O[C@H](CO)[C@@H](O)[C@H]3O)c2n1", "note": "(mixture of isomers) [Compound 19, 2-amino-9-β-D-ribofuranosyl-9H-purine-6-sulfinamide]", "values": [
      {"measurement": "in vivo antitumor activity", "setting": "L1210 cells [1]; mouse, in vivo", "value": "good in vivo activity"},
      {"measurement": "oral activity (words)", "setting": "L1210 cells [1]", "value": "Oral activity is seen"},
      {"measurement": "Activity against I.P. L1210 cells, T/C", "setting": "L1210 cells [1]; oral 37 mg/kg, bid days 1,3,5,7", "value": 148.6, "unit": "%"},
      {"measurement": "Activity against I.P. L1210 cells, T/C", "setting": "L1210 cells [1]; oral 37 mg/kg, qd days 1,4,7", "value": 144.6, "unit": "%"},
      {"measurement": "% ILS", "setting": "L1210 cells [1]; [5]", "value": 49, "unit": "%"},
      {"measurement": "Increased life span", "setting": "L1210 cells [1]; oral 37 mg/kg/inj, qd days 1,4,7", "value": 45, "unit": "%"},
      {"measurement": "Activity against I.P. L1210 cells, T/C", "setting": "L1210 cells [1]; oral 62 mg/kg, bid days 1,4,7", "value": 140.0, "unit": "%"},
      {"measurement": "Activity against I.P. L1210 cells, T/C", "setting": "L1210 cells [1]; oral 62 mg/kg, qd days 1,4,7", "value": 144.6, "unit": "%"},
      {"measurement": "% ILS", "setting": "L1210 cells [1]; [6]", "value": 40, "unit": "%"},
      {"measurement": "Increased life span", "setting": "L1210 cells [1]; oral 62 mg/kg/inj, qd days 1,4,7", "value": 45, "unit": "%"},
      {"measurement": "Activity against I.P. L1210 cells, T/C", "setting": "L1210 cells [1]; oral 104 mg/kg, qd days 1,4,7", "value": 138.5, "unit": "%"},
      {"measurement": "Increased life span", "setting": "L1210 cells [1]; oral 104 mg/kg/inj, qd days 1,4,7", "value": 38, "unit": "%"},
      {"measurement": "Activity against I.P. L1210 cells, T/C", "setting": "L1210 cells [1]; oral 173 mg/kg, qd days 1,4,7", "value": 138.5, "unit": "%"},
      {"measurement": "Increased life span", "setting": "L1210 cells [1]; oral 173 mg/kg/inj, qd days 1,4,7", "value": 38, "unit": "%"},
      {"measurement": "oral activity (words)", "setting": "L1210 cells [1]; [7]", "value": "active in both an oral and an injectable form; also recorded: orally active"},
      {"measurement": "% ILS", "setting": "L1210 cells [1]; single agent day 1, Compound 19 173 mg/kg, Compound 18 22 mg/kg (Table 12)", "value": 88, "unit": "%"},
      {"measurement": "% ILS", "setting": "L1210 cells [1]; single agent day 1, Compound 19 173 mg/kg, Tiazofurin 22 mg/kg (Table 13)", "value": 81, "unit": "%"},
      {"measurement": "activity against human lung carcinoma LX-1", "setting": "[2]", "value": "No activity"},
      {"measurement": "generation of drug resistant cell lines (words)", "setting": "[3]", "value": "has not been found to generate resistant cell lines"},
      {"measurement": "generation of drug resistant cell lines (words)", "setting": "[3]; [7]", "value": "lack of generating resistant cell lines; also recorded: lack of resistance cell generation"},
      {"measurement": "activity against Methotrexate resistant cells", "setting": "L1210/MTX cells; depending on dose level and regimen", "value": "activity can be seen against these Methotrexate resistant cells"},
      {"measurement": "L1210/MTX cells surviving (% of day zero inoculum)", "setting": "L1210/MTX cells; ip 104 mg/kg/day, qd days 1,4,7", "value": 238.4, "unit": "%"},
      {"measurement": "L1210/MTX cells surviving (% of day zero inoculum)", "setting": "L1210/MTX cells; ip 173 mg/kg/day, qd day 1", "value": 1.6, "unit": "%"},
      {"measurement": "L1210/MTX cells surviving (% of day zero inoculum)", "setting": "L1210/MTX cells; ip 173 mg/kg/day, qd days 1,4,7", "value": 33.8, "unit": "%"},
      {"measurement": "L1210 cells surviving day 7 treatment (% of original inoculum)", "setting": "L1210 cells [4]; 22 mg/kg, bid days 1,3,5,7", "value": 594, "unit": "%"},
      {"measurement": "L1210 cells surviving day 7 treatment (% of original inoculum)", "setting": "L1210 cells [4]; 22 mg/kg, bid days 1,4,7", "value": 9211, "unit": "%"},
      {"measurement": "L1210 cells surviving day 7 treatment (% of original inoculum)", "setting": "L1210 cells [4]; 22 mg/kg, bid days 1-7", "value": 343, "unit": "%"},
      {"measurement": "L1210 cells surviving day 7 treatment (% of original inoculum)", "setting": "L1210 cells [4]; 37 mg/kg, bid days 1,3,5,7", "value": 17, "unit": "%"},
      {"measurement": "L1210 cells surviving day 7 treatment (% of original inoculum)", "setting": "L1210 cells [4]; 37 mg/kg, bid days 1,4,7", "value": 87, "unit": "%"},
      {"measurement": "L1210 cells surviving day 7 treatment (% of original inoculum)", "setting": "L1210 cells [4]; 37 mg/kg, bid days 1-7", "value": 22, "unit": "%"},
      {"measurement": "L1210 cells surviving day 7 treatment (% of original inoculum)", "setting": "L1210 cells [4]; 37 mg/kg, qd days 1,3,5,7", "value": 3077, "unit": "%"},
      {"measurement": "L1210 cells surviving day 7 treatment (% of original inoculum)", "setting": "L1210 cells [4]; 37 mg/kg, qd days 1,4,7", "value": 15936, "unit": "%"},
      {"measurement": "L1210 cells surviving day 7 treatment (% of original inoculum)", "setting": "L1210 cells [4]; 37 mg/kg, qd days 1-7", "value": 115, "unit": "%"},
      {"measurement": "L1210 cells surviving day 7 treatment (% of original inoculum)", "setting": "L1210 cells [4]; 62 mg/kg, bid days 1,3,5,7", "value": 0.3, "unit": "%"},
      {"measurement": "L1210 cells surviving day 7 treatment (% of original inoculum)", "setting": "L1210 cells [4]; 62 mg/kg, bid days 1,4,7", "value": 5.6, "unit": "%"},
      {"measurement": "L1210 cells surviving day 7 treatment (% of original inoculum)", "setting": "L1210 cells [4]; 62 mg/kg, qd days 1,3,5,7", "value": 50, "unit": "%"},
      {"measurement": "L1210 cells surviving day 7 treatment (% of original inoculum)", "setting": "L1210 cells [4]; 62 mg/kg, qd days 1,4,7", "value": 594, "unit": "%"},
      {"measurement": "L1210 cells surviving treatment (% of original inoculum)", "setting": "L1210 cells [4]; 62 mg/kg, qd days 1-7", "value": 13, "unit": "%"},
      {"measurement": "L1210 cells surviving treatment (% of original inoculum)", "setting": "L1210 cells [4]; 104 mg/kg, qd days 1,3,5,7", "value": 17, "unit": "%"},
      {"measurement": "L1210 cells surviving treatment (% of original inoculum)", "setting": "L1210 cells [4]; 104 mg/kg, qd days 1,4,7", "value": 29, "unit": "%"},
      {"measurement": "L1210 cells surviving treatment (% of original inoculum)", "setting": "L1210 cells [4]; 173 mg/kg, qd days 1,3,5,7", "value": 0.2, "unit": "%"},
      {"measurement": "L1210 cells surviving treatment (% of original inoculum)", "setting": "L1210 cells [4]; 173 mg/kg, qd days 1,4,7", "value": 1.1, "unit": "%"},
      {"measurement": "RCP (Residual Cell Population)", "setting": "L1210 cells [4]; ip 37 mg/kg/inj, bid days 1,3,5,7", "value": ".32"},
      {"measurement": "L1210 cells surviving (% of day zero inoculum)", "setting": "L1210 cells [4]; ip 62 mg/kg, bid day 1", "value": 0.8, "unit": "%"},
      {"measurement": "L1210 cells surviving (% of day zero inoculum)", "setting": "L1210 cells [4]; ip 62 mg/kg, qd day 1, 62 mg/kg", "value": "0.8% and 8.5%"},
      {"measurement": "L1210 cells surviving (% of day zero inoculum)", "setting": "L1210 cells [4]; ip 62 mg/kg, tid day 1", "value": 0.4, "unit": "%"},
      {"measurement": "RCP (Residual Cell Population)", "setting": "L1210 cells [4]; ip 62 mg/kg/inj, bid days 1,4,7", "value": ".14"},
      {"measurement": "L1210 cells surviving (% of day zero inoculum)", "setting": "L1210 cells [4]; ip 104 mg/kg, qd day 1", "value": 5.4, "unit": "%"},
      {"measurement": "L1210 cells surviving treatment (% of day zero inoculum)", "setting": "L1210 cells [4]; ip 104 mg/kg/day, qd days 1-7, 1 long term survivor not included", "value": 0.04, "unit": "%"},
      {"measurement": "L1210 cells surviving (% of day zero inoculum)", "setting": "L1210 cells [4]; ip 173 mg/kg, qd day 1", "value": 1.4, "unit": "%"},
      {"measurement": "RCP (Residual Cell Population)", "setting": "L1210 cells [4]; [5]", "value": 3.73},
      {"measurement": "RCP (Residual Cell Population)", "setting": "L1210 cells [4]; [6]", "value": 8.48}
    ]}
  ]
}
